Reference: publication PMC5498548
≈ marks a conversion by molar mass, not a printed value. Where “and” joins values, the source holds several entries; their conditions need not be identical. Equal entries are not always repeated. Structures can show the parent of a compound that is named as a salt. Where two headings read alike, the source gives them in different places.

How the values were obtained:
IdeR [1] = molecular target: T1, IdeR (Mycobacterium tuberculosis, UniProt P9WMH1); test: biochemical; conditions: EMSA
T1 sequence (P9WMH1 whole entry, looked up): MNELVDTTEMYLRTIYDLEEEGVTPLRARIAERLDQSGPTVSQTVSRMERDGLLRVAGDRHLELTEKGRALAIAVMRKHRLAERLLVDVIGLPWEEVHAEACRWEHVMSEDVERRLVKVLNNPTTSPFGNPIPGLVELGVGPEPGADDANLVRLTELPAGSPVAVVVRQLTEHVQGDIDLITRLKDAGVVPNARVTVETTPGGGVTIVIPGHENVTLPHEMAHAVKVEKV

IdeR [2] = molecular target: T1, IdeR; test: EMSA competition experiments with increasing labeled DNA; type: biochemical; conditions: DNA 0.8 pmoles to 12.8 pmoles
M. tuberculosis = test: Resazurin microtiter assay (REMA) whole cell MIC90 in broth culture; type: cell-based, Mycobacterium tuberculosis; conditions: MB7H9 medium, Mean ± S.E., three experiments; for MIC90: Mycobacterium tuberculosis, read-out: MIC90 of compounds against M. tuberculosis
[3] = tested on: HepG2 (Human hepatocellular carcinoma cell line); test: Cytotoxicity by REMA in HepG2; type: cell-based; conditions: for Inhibition in HepG2 (IC50 in µg/ml): 1-200 µg/ml; for IC50: Homo sapiens, HepG2, 1-200 µg/ml, read-out: Inhibition in HepG2 (IC50 in µg/ml)
Procedure: (§1) The cytotoxicity of the compounds was determined by employing REMA using various mammalian cell lines such as THP-1 (human monocytic macrophage cell line), HEK (Human Embryonic Kidney cell line), MDCK (Madine darby canine kidney cell line) and HepG2 (Human hepatocellular carcinoma cell line). 1 × 10^4 cells/well were employed in a sterilized 96-well plate containing serial dilutions of compounds ranging from 1 µg/ml to 200 µg/ml concentration, in their respective media (RPMI for THP-1, DMEM for HEK and HepG2 and MEM for MDCK) with 10% fetal bovine serum and Antibiotic-Antimycotic mix (Invitrogen Corporation, Carlsbad, California, USA). IC50 is defined as the concentration of the compound that causes 50% reduction in the fluorescence intensity indicating 50% viable cells. IC50 values were determined from the results of at least two independent tests and Mean ± S.E.M was calculated from the inhibition curve using GraphPad Prism 5.

[4] = tested on: HEK (Human Embryonic Kidney cell line); test: Cytotoxicity by REMA in HEK; type: cell-based; conditions: 1-200 µg/ml; for IC50: Homo sapiens, read-out: Inhibition in HEK (IC50 in µg/ml)
Procedure: as §1

[5] = tested on: THP-1 (human monocytic macrophage cell line); test: Cytotoxicity by REMA in THP-1; type: cell-based; conditions: for Inhibition in THP1 (IC50 in µg/ml): 1-200 µg/ml; for IC50: Homo sapiens, THP-1, 1-200 µg/ml, read-out: Inhibition in THP1 (IC50 in µg/ml)
Procedure: as §1

[6] = tested on: MDCK (Madine darby canine kidney cell line); test: Cytotoxicity by REMA in MDCK; type: cell-based; conditions: 1-200 µg/ml; for IC50: Canis lupus familiaris, MDCK, read-out: Inhibition in MDCK (IC50 in µg/ml)
Procedure: as §1

[7] = 0.35 µg IdeR, 0.8 picomoles labeled DNA, 200 µM NiSO4, inhibitor 0.4-100 µg/ml
[8] = same values given in µM, read-out: IC50
[9] = 0.35 µg IdeR, 0.8 picomoles labeled DNA, 200 µM NiSO4, inhibitor 0.4-100 µg/ml, read-out: IC50 (µg/ml) (converted)

Compound | IC50 (IdeR [1]; [7]) | IC50 (IdeR [1]; [8]) [µM] | IC50 (IdeR [1]; [9]) | other results
4-oxo-3-({4-[-(4-sulfophenyl)diazenyl]phenyl}hydrazono)-3,4-dihydro-1-naphtalenesulfonic acid [IS-7] | 32.13 ± 1.56 µg/mL | 57.5 | – | –
5[phenylimino)methyl]benzene-1,2,3 triol [IS-51] | 16.5 µg/mL and 16.52 ± 1.72 µg/mL | 72 | – | –
Nc1ccc(-c2nc3ccccc3s2)cc1S(=O)(=O)O [Compound I-8, 2amino-5-(1,3-benzothiazol-2-yl) benzene sulfonic acid ammoniate] | – | 74 | ≤ 81.6 µM and 78 µM | mode of inhibition in competition with DNA (IdeR [2]): competing with DNA; MIC90 of compounds against M. tuberculosis (µg/ml) (M. tuberculosis): no inhibition
O=C1OC(C=Cc2ccccc2)=NC1=Cc1cccc([N+](=O)[O-])c1 [Compound I-18, 4-(3-nitrobenzylidene)-2-[2-phenylethenyl]-1,3-oxazol5(4H)-one] | – | 43.7 | 43.7 µM | –
NC(CC(=O)O)C(=O)OCc1cccc(/N=N/c2ccccc2)c1 (stereo not drawn) [Compound I-21] | – | 16.8 | 16.7 µM | mode of inhibition in competition with DNA (IdeR [2]): competing with DNA
Cc1cc(=O)oc2c(CNC(C)C(=O)O)cc(O)cc12 (stereo not drawn) [Compound I-38] | 100 ± 3.176 µg/mL | 361 | – | –
CC(NCc1c(O)ccc2ccc(=O)oc12)C(=O)O (stereo not drawn) [Compound I-39] | – | 54 | 53.9 µM | mode of inhibition in competition with DNA (IdeR [2]): competing with DNA
O=S(=O)(Nc1ccc(Cl)cc1NS(=O)(=O)c1ccccc1)c1ccccc1 [Compound I-85, N,N`-(4-chlorobenzene-1,2-diyl)dibenzenesulfonamide] | – | 67.1 | 67.2 µM | –
O=C(NN=c1ccc([N+](=O)[O-])c[nH]1)Nc1ccc(-c2ccccc2)cc1 [Compound I-89, N-(biphenyl-4-yl)-2-(5-nitropyridin-2(1H)-ylidene)hydrazinecarboxamide] | – | 83.4 | 83.3 µM | –
Cc1ccccc1N=Nc1ccc2c(S(=O)(=O)[O-])cccc2c1O.[Na+] [Compound I-90, 1-Naphthalenesulfonic acid,5-hydroxy-6-[(2-methylphenyl)azo]-monosodium salt] | 45.27 ± 1.3 µg/mL | 124 | – | –
O=C1N[C@H]2CCCC[C@@H]2C(=O)N1OS(=O)(=O)c1ccccc1 [Compound I-91, (4As,8As)-3-[(phenylsulfonyl)oxy]hexahydroquinazoline-2,4(1H,3H)-dione] | – | 231 | 231 µM | –
NC(Cc1c[nH]c2cc(OCc3ccccc3)ccc12)C(=O)O (stereo not drawn) [Compound I-92, 2-amino-3-[6-(benzyloxy)-1H-indol-3-yl]propanoic acid] | – | 189 | 189 µM | –
Cc1c2ccccc2nc(C[S+]([O-])c2ccccc2)[n+]1[O-] (stereo not drawn) [Compound I-93, 4-methyl-2-[(phenylsulfinyl)methyl]quinazoline 3-oxide] | – | 182 | 181 µM | –
Oc1ccc(/C=N\c2ccccc2/N=C\c2ccc(O)c(O)c2)cc1O [Compound I-103, 4,4`-{benzene-1,2-diylbis[nitrilo(Z)methylylidene]}dibenzene-1,2-diol] | – | 95.6 | 95.6 µM | –
O=C(NN1C(=O)C=C(O)C1=Cc1ccccc1)c1ccccc1 [Compound I-112, N-[2-benzylidene-3-hydroxy-5-oxo-2,5-dihydro-1H-pyrrol-1-yl]benzamide] | – | 170 | 170 µM | –
Cc1ccccc1NC(=O)Nc1cccc(-c2nnc(Cc3ccc4c(c3)OCO4)o2)c1 [IA8, 3-[3-[5-(1,3-benzodioxol-5-ylmethyl)-1,3,4-oxadiazol-2-yl]phenyl]-1-(o-tolyl) urea] | – | – | 143 µM | –

Compound | IC50 (IdeR [1]; [7]) | IC50 (IdeR [1]; [8]) [µM] | IC50 (IdeR [1]; [9]) | other results
O=S(=O)(O)c1ccc(O)c(/N=N/c2ccc(O)cc2O)c1 [IS-2, Benzensulfonic acid, 3-[(2,4-dihydroxyphenyl)azo]-4-hydroxy] | – | 16.3 | 17.4 µM and 17.7 µM | –
COc1ccc(-c2nc3ccccc3s2)cc1S(=O)(=O)O [IS-4, 5-(1,3-benzothiazol-2-yl)-2-methoxybenzenesulfonic acid] | – | 42.1 | 45.1 µM | Inhibition in HepG2 (IC50 in µg/ml) [3]: slight toxicity; IC50 [3]: 176.3 ± 1.6 µg/mL (≈ 549 µM); MIC90 (M. tuberculosis): 100 µg/mL (≈ 311 µM); Inhibition in HEK (IC50 in µg/ml) [4]: slight toxicity; IC50 [4]: 164.7 ± 1.24 µg/mL (≈ 512 µM); Inhibition in THP1 (IC50 in µg/ml) [5]: slight toxicity; IC50 [5]: 166 ± 3.72 µg/mL (≈ 516 µM); Inhibition in MDCK (IC50 in µg/ml) [6]: slight toxicity; IC50 [6]: 173 ± 2.3 µg/mL (≈ 538 µM)
O=S(=O)(O)c1cccc2cccc(N=Nc3c(O)ccc4ccccc34)c12 [IS-6, 8-[-(2-hydroxynaphthalen-1-yl)diazenyl]naphthalene-1-sulfonic acid] | – | 54 | 57.2 µM | –
Nc1ccc(N=Nc2ccc(N=Nc3ccc(N=Nc4cc(S(=O)(=O)O)c5ccccc5c4O)c4ccc(S(=O)(=O)O)cc34)c3ccc(S(=O)(=O)O)cc23)cc1 [IS-8, 1-Naphthalenesulfonic acid, 3-[[4-[[4-[(4-aminophenyl)azo]-6-sulfo-1-naphthalenyl]azo]-6-sulfo-1-naphthalenyl]azo]-4-hydroxy-,trisodium salt] | – | 0.75 | 0.813 µM and 0.822 µM | –
O=S(=O)([O-])c1cc(N=Nc2c(O)ccc3ccccc23)c2c(S(=O)(=O)[O-])cccc2c1.[Na+].[Na+] [IS-9, 8-[-(2-hydroxynaphthalen-1-yl)diazenyl]naphthalene-1,6-disulfonic acid, disodium salt] | 13.9 ± 7.37 µg/mL | 27.6 | – | –
O=S(=O)(O)c1ccc(O)c(/N=N/c2ccc(O)cc2O)c1 [IS-12, Benzene sulfonic acid, 3-[(2,4-dihydroxyphenyl)azo]-4-hydroxy] | – | 15.2 | 15.1 µM | –
Nc1ccc(-c2nc3ccccc3s2)cc1S(=O)(=O)O [IS-32, 2-Amino-5-(1,3-benzothiazol-2-yl) benzenesulfonic acid] | – | 64.8 | 68.3 µM | –
Cc1cc(=O)oc2c(CNC(C(=O)O)C(C)O)c(O)ccc12 (stereo not drawn) [IS-40, 3-hydroxy-2-{[(7-hydroxy-4-methyl-2-oxo-2H-chromen-8-yl)methyl]amino}butanoic acid] | – | 275 | 269 µM | –
O=S(=O)(O)c1ccc2c(N=Nc3cccc4ccccc34)c(O)c(S(=O)(=O)O)cc2c1 [IS-45, 2,7-naphthalenedisulfonic acid, 3-hydroxy-4-(1-napthalenylazo)] | 20.19 ± 1.74 µg/mL | 40 | – | –
Oc1ccccc1C=Nc1ccccc1N=Cc1ccccc1O [IS-47] | 84 ± 1.2 µg/mL | 266 | – | –
Nc1ccc(-c2nc3ccccc3s2)cc1 [IS-54, 4-(1,3-benzothiazol-2-yl)aniline] | – | 49.6 | 49.5 µM | Inhibition in HepG2 (IC50 in µg/ml) [3]: slight toxicity; IC50 [3]: 167 ± 3.78 µg/mL (≈ 740 µM); MIC90 of compounds against M. tuberculosis (M. tuberculosis): 84.8 ± 8 µg/mL; MIC90 (M. tuberculosis): 84.8 µg/mL (≈ 375 µM); Inhibition in HEK (IC50 in µg/ml) [4]: slight toxicity; IC50 [4]: 161 ± 4.22 µg/mL (≈ 712 µM); Inhibition in THP1 (IC50 in µg/ml) [5]: slight toxicity; IC50 [5]: 182 ± 5.2 µg/mL (≈ 802 µM); Inhibition in MDCK (IC50 in µg/ml) [6]: slight toxicity; IC50 [6]: 174 ± 6.4 µg/mL (≈ 770 µM)
O=S(=O)(O)c1cccc2c(O)c(N=Nc3cccc4ccccc34)ccc12 [IS-55, 1-napthalenesulfonic acid,5-hydroxy-6-(1-naphthalenylazo)] | 6.6 ± 1.95 µg/mL | 16.4 | – | –
COc1ccccc1N=Nc1cc(S(=O)(=O)O)c2ccccc2c1O [IS-59] | 18.64 ± 1.532 µg/mL | 48.9 | – | –
O=S(=O)(Nc1c(Cl)c(Cl)c(Cl)c(Cl)c1NS(=O)(=O)c1ccccc1)c1ccccc1 [IS-70, N,N-(3,4,5,6-tetrachlorobenzene-1,2-diyl) dibenzenesulfonamide] | 46.44 ± 1.486 µg/mL | 88.3 | – | –
CO[C@H]1/C=C/O[C@@]2(C)Oc3c(C)c(O)c4c(O)c(c(/C=N/N5CCN(C)CC5)c(O)c4c3C2=O)NC(=O)/C(C)=C\C=C\[C@H](C)[C@H](O)[C@@H](C)[C@@H](O)[C@@H](C)[C@H](OC(C)=O)[C@@H]1C [Rifampicin, reference compound] | – | – | – | IC50 [3]: > 100 µg/mL; MIC90 (M. tuberculosis): 0.05 to 0.2 µg/mL (≈ 0.0608 to 0.243 µM); IC50 [4]: > 100 µg/mL; IC50 [5]: > 100 µg/mL; IC50 [6]: > 100 µg/mL
